# Measured values from patent US20230121313A1 (priority 2019, published 2023).
# System: patients with treatment-resistant depression (TRD)
# Assay: MADRS total score, phase 2 doubly-randomized dose-response study in TRD (NCT01998958)
# Format: in vivo, human
# Conditions: for MADRS total score, Mean difference placebo: Period 1 and Period 2 Combined; for MADRS total score: LS mean difference vs placebo, range over esketamine dose groups / Proportion of responders (≥50% improvement in MADRS total score) / Remission (MADRS total score ≤10) / MADRS total score: treatment difference relative to placebo: phase 2; for MADRS total score: LS mean difference vs placebo, range over esketamine dose groups: 28, 56, 84 mg; for Proportion of responders (≥50% improvement in MADRS total score): Period 2 endpoint; for Remission (MADRS total score ≤10): after 2 weeks; for MADRS total score: treatment difference relative to placebo: day 15
# Text: In Panel A, reported here, 14 study sites (13 in US, 1 in Belgium) enrolled participants into the study. The study consisted of four phases: 1) screening, 2) double-blind treatment (days 1 to 15), comprised of two 1-week periods (Period 1, Period 2), 3) optional open-label treatment (days 15 to 74) with tapering of intranasal dosing frequency, and 4) post-treatment follow-up (8 weeks). Based on prior studies of ketamine where efficacy was reported after 1-2 doses, the duration of each period in the double-blind phase was 1 week, during which time it was expected that efficacy could be achieved. This design allowed evaluation of the dose(s) needed to proceed to evaluation in phase 3. The purpose of the open-label flexible-dose phase was to evaluate the impact of less frequent dosing on sustaining efficacy.
# At the beginning of double-blind Period 1, eligible participants were randomized (3:1:1:1) to intranasal placebo or esketamine 28, 56, or 84 mg, twice weekly (days 1 and 4) based on the first of two computer-generated randomization schedules (Period 1 and Period 2). Randomization was balanced by using randomly permuted blocks and stratified by study center. At the end of Period 1, those randomized to placebo who had moderate-to-severe symptoms (assessed by Quick Inventory of Depressive Symptomatology-Self Report (Trivedi 2016 and Rush, “The 16-item Quick Inventory of Depressive Symptomatology (QIDS) Clinician Rating (QIDS-C) and Self-Report (QIDS-SR): A psychometric evaluation in patients with chronic major depression”, Biol. Psychiatry, 2003, 54(5):573-583) [QIDS-SR16] total score: moderate, 11-16; severe, >16) were re-randomized (1:1:1:1) to intranasal esketamine 28, 56, or 84 mg or placebo, twice weekly (days 8 and 11), while those having mild or no symptoms continued on placebo. To maintain the blind, all participants completed an identical process prior to entry into Period 2, whether or not they were re-randomized. Regardless of response in the double-blind phase, all participants were eligible to enter the optional open-label phase. Esketamine (56 mg) was administered on the first day of the open-label phase (study day 15); subsequent doses could be adjusted (range: 28 to 84 mg) based on investigator's clinical judgment, with administration twice weekly for first 2 weeks, weekly for next 3 weeks, then every 2 weeks thereafter.
# Efficacy was assessed with the Montgomery-Asberg Depression Rating Scale (MADRS; Montgomery, “A new depression scale designed to be sensitive to change”, Br. J. Psychiatry, 1979, 134:382-389; Williams, “Development and reliability of a structured interview guide for the Montgomery Asberg Depression Rating Scale (SIGMA)”, Br. J. Psychiatry, 2008, 192(1):52-58) on days 1 (pre-dose and 2 hour post-dose), 2, 8 (pre-dose), 9, and 15, using the structured interview guide (SIGMA). See, Williams 2008.
# Efficacy data were analyzed in intent-to-treat (ITT) analysis sets for each period and phase. The ITT analysis sets included all participants who received at least 1 dose of study medication during that period or phase and had baseline and at least one post-baseline MADRS total score within that period or phase.
# The primary efficacy endpoint—change from baseline (pre-dose, day 1 in each period) to endpoint (day 8 in each period) in MADRS total score—was analyzed using the analysis of covariance (ANCOVA) model. For Period 1, the model included treatment and country as factors, and baseline MADRS total score as covariate. For Period 2, the model included treatment and country as factors, Period 2 baseline QIDS-SR16 score (moderate or severe), and Period 2 baseline MADRS total score as a continuous covariate.
# Given the consistency between Periods 1 and 2 results (Chi 2016), esketamine dose groups were compared to placebo using a combined test on the weighted test statistics for each period in the double-blind treatment phase. […]
# [1] = OL endpoint-day 74, Esketamine/Esketamine/OL Esketamine
# [2] = OL endpoint-day 74, Placebo/Esketamine/OL Esketamine
# [3] = OL endpoint-day 74, Placebo/Placebo/OL Esketamine
# [4] = Period 1, 2 hours, esketamine 28 mg
# [5] = Period 1, 2 hours, esketamine 56 mg
# [6] = Period 1, 2 hours, esketamine 84 mg
# [7] = Period 1, 24 hours, esketamine 28 mg
# [8] = Period 1, 24 hours, esketamine 56 mg
# [9] = Period 1, 24 hours, esketamine 84 mg
# [10] = Period 1, study period endpoint (day 8), esketamine 28 mg
# [11] = Period 1, study period endpoint (day 8), esketamine 56 mg
# [12] = Period 1, study period endpoint (day 8), esketamine 84 mg
# [13] = Period 2 (placebo nonresponsive participants re-randomized), 2 hours, esketamine 28 mg
# [14] = Period 2 (placebo nonresponsive participants re-randomized), 2 hours, esketamine 56 mg
# [15] = Period 2 (placebo nonresponsive participants re-randomized), 2 hours, esketamine 84 mg
# [16] = Period 2 (placebo nonresponsive participants re-randomized), 24 hours, esketamine 28 mg
# [17] = Period 2 (placebo nonresponsive participants re-randomized), 24 hours, esketamine 56 mg
# [18] = Period 2 (placebo nonresponsive participants re-randomized), 24 hours, esketamine 84 mg
# [19] = Period 2 (placebo nonresponsive participants re-randomized), study period endpoint (day 15), esketamine 28 mg
# [20] = Period 2 (placebo nonresponsive participants re-randomized), study period endpoint (day 15), esketamine 56 mg
# [21] = Period 2 (placebo nonresponsive participants re-randomized), study period endpoint (day 15), esketamine 84 mg
# [22] = Week 8 (Follow-up), Esketamine/Esketamine/OL Esketamine
# [23] = Week 8 (Follow-up), Placebo/Esketamine/OL Esketamine
# [24] = Week 8 (Follow-up), Placebo/Placebo/OL Esketamine
smiles,measurement,setting,value
"CN[C@]1(c2ccccc2Cl)CCCCC1=O [esketamine, (S)-2-(2-chlorophenyl)-2-(methylamino)cyclohexanone]","Remission Rate, No, %",[1],72.2%
same,"Remission Rate, Yes, %",[1],27.8%
same,"Response Rate, ≥50% improvement, %",[1],61.1%
same,"Remission Rate, No, %",[2],60.0%
same,"Remission Rate, Yes, %",[2],40.0%
same,"Response Rate, ≥50% improvement, %",[2],50.0%
same,"Remission Rate, No, %",[3],66.7%
same,"Remission Rate, Yes, %",[3],33.3%
same,"Response Rate, ≥50% improvement, %",[3],100%
same,"Remission Rate, No, %","OL endpoint-day 74, Total",67.6%
same,"Remission Rate, Yes, %","OL endpoint-day 74, Total",32.4%
same,"Response Rate, ≥50% improvement, %","OL endpoint-day 74, Total",64.7%
same,"MADRS total score, LS mean change",[4],−16.4
same,"MADRS total score, LS mean difference placebo",[4],−6.7
same,"Remitters, %",[4],(27.3) %
same,"Responders, %",[4],(54.5) %
same,"MADRS total score, LS mean change",[5],−14.3
same,"MADRS total score, LS mean difference placebo",[5],−4.6
same,"Remitters, %",[5],(18.2) %
same,"Responders, %",[5],(36.4) %
same,"MADRS total score, LS mean change",[6],−17.6
same,"MADRS total score, LS mean difference placebo",[6],−7.9
same,"Remitters, %",[6],(25.0) %
same,"Responders, %",[6],(58.3) %
same,"MADRS total score, LS mean change",[7],−14.8
same,"MADRS total score, LS mean difference placebo",[7],−9.1
same,"Remitters, %",[7],(36.4) %
same,"Responders, %",[7],(36.4) %
same,"MADRS total score, LS mean change",[8],−15.7
same,"MADRS total score, LS mean difference placebo",[8],−10.0
same,"Remitters, %",[8],(18.2) %
same,"Responders, %",[8],(27.3) %
same,"MADRS total score, LS mean change",[9],−16.4
same,"MADRS total score, LS mean difference placebo",[9],−10.7
same,"Remitters, %",[9],(25.0) %
same,"Responders, %",[9],(41.7) %
same,"MADRS total score, LS mean change",[10],−9.8
same,"MADRS total score, LS mean difference placebo",[10],−5.0
same,"Remitters, %",[10],(9.1) %
same,"Responders, %",[10],(9.1) %
same,"MADRS total score, LS mean change",[11],−12.4
same,"MADRS total score, LS mean difference placebo",[11],−7.6
same,"Remitters, %",[11],(9.1) %
same,"Responders, %",[11],(18.2) %
same,"MADRS total score, LS mean change",[12],−15.3
same,"MADRS total score, LS mean difference placebo",[12],−10.5
same,"Remitters, %",[12],(25.0) %
same,"Responders, %",[12],(41.7) %
same,"MADRS total score, Mean difference placebo",esketamine 28 mg,−4.2
same,"MADRS total score, Mean difference placebo",esketamine 56 mg,−6.3
same,"MADRS total score, Mean difference placebo",esketamine 84 mg,−9.0
same,"MADRS total score, LS mean change",[13],−10.3
same,"MADRS total score, LS mean difference placebo",[13],−3.5
same,"Remitters, %",[13],(12.5) %
same,"Responders, %",[13],(12.5) %
same,"MADRS total score, LS mean change",[14],−11.7
same,"MADRS total score, LS mean difference placebo",[14],−4.9
same,"Responders, %",[14],(22.2) %
same,"MADRS total score, LS mean change",[15],−11.6
same,"MADRS total score, LS mean difference placebo",[15],−4.9
same,"Remitters, %",[15],(40.0) %
same,"Responders, %",[15],(40.0) %
same,"MADRS total score, LS mean change",[16],−8.9
same,"MADRS total score, LS mean difference placebo",[16],−4.8
same,"MADRS total score, LS mean change",[17],−10.2
same,"MADRS total score, LS mean difference placebo",[17],−6.1
same,"Responders, %",[17],(11.1) %
same,"MADRS total score, LS mean change",[18],−11.6
same,"MADRS total score, LS mean difference placebo",[18],−7.5
same,"Remitters, %",[18],(20.0) %
same,"Responders, %",[18],(40.0) %
same,"MADRS total score, LS mean change",[19],−7.6
same,"MADRS total score, LS mean difference placebo",[19],−3.1
same,"Remitters, %",[19],(12.5) %
same,"Responders, %",[19],(12.5) %
same,"MADRS total score, LS mean change",[20],−8.9
same,"MADRS total score, LS mean difference placebo",[20],−4.4
same,"MADRS total score, LS mean change",[21],−11.4
same,"MADRS total score, LS mean difference placebo",[21],−6.9
same,"Remitters, %",[21],(20.0) %
same,"Responders, %",[21],(20.0) %
same,"Remission Rate, No, %",[22],54.5%
same,"Remission Rate, Yes, %",[22],45.5%
same,"Response Rate, ≥50% improvement, %",[22],68.2%
same,"Remission Rate, No, %",[23],75.0%
same,"Remission Rate, Yes, %",[23],25.0%
same,"Response Rate, ≥50% improvement, %",[23],25.0%
same,"Remission Rate, No, %",[24],42.9%
same,"Remission Rate, Yes, %",[24],57.1%
same,"Response Rate, ≥50% improvement, %",[24],71.4%
same,"Remission Rate, No, %","Week 8 (Follow-up), Total",58.5%
same,"Remission Rate, Yes, %","Week 8 (Follow-up), Total",41.5%
same,"Response Rate, ≥50% improvement, %","Week 8 (Follow-up), Total",56.1%
same,"MADRS total score: LS mean difference vs placebo, range over esketamine dose groups",Period 1 (baseline to day 8),−5.0 to −10.5
same,"MADRS total score: LS mean difference vs placebo, range over esketamine dose groups",Period 2 (day 8 to day 15),−3.1 to −6.9
same,Proportion of responders (≥50% improvement in MADRS total score),28 mg,37.5%
same,Proportion of responders (≥50% improvement in MADRS total score),56 mg,36.4%
same,Proportion of responders (≥50% improvement in MADRS total score),84 mg,50.0%
same,Remission (MADRS total score ≤10),28 mg,12.5%
same,Remission (MADRS total score ≤10),56 mg,27.3%
same,Remission (MADRS total score ≤10),84 mg,40.0%
same,MADRS total score: treatment difference relative to placebo,"completers with same treatment 2 weeks, 84 mg",−12.5
same,MADRS total score: treatment difference relative to placebo,"completers, 28 mg",−6.0
same,MADRS total score: treatment difference relative to placebo,"completers, 56 mg",−8.3
